According to patent EP1118615A1, “NOVEL SALTS OF PYRIDOPYRAZINE COMPOUND AND CRYSTALS THEREOF” (FUJISAWA PHARMACEUTICAL CO., LTD., priority 1998, dated 2000):

How the values were obtained:
IL-2 = assay: (A3) Anti-CD3/CD28 antibody-stimulated cytokine production inhibitory activity in PBMC, ELISA: IL-2; assay type: cell-based; details: Homo sapiens, anti-CD3 and anti-CD28 antibodies, 24-hr culture supernatant
Description: (A3) Anti-CD3/CD28 antibody-stimulated TNF α production inhibitory activity in human peripheral blood monocytes (PBMC)
[Method] Monocytes isolated from healthy adult male volunteers were cultured and stimulated with anti-CD3 and anti-CD28 antibodies and the amounts of TNF, INF, 1L-2, IL-4 and IL-10 in the 24-hr culture supernatant were determined by ELISA.

[1] = test system: ConA (concanavalin A) -induced mouse hepatitis model; assay: (B3) ConA (concanavalin A)-induced mouse hepatitis model; assay type: in vivo, Balb/c mice; details: 18 hours after ConA
Description: (B3) ConA (concanavalin A) -induced mouse hepatitis model
[Method] Male Balb/c mice aged 9 weeks were deprived of food for 20 hours and the drug or the solvent vehicle was administered orally in predetermined doses. After 1 hour, saline was administered intravenously to the NORMAL group and concanavalin A, 0.4 mg/mouse, was administered similarly to the CONTROL and DRUG groups. At 18 hours after administration of ConA, the blood was drawn and the liver isolated. Using the blood, the liver-derived enzymes (ALT and AST) in plasma were assayed. The liver was fixed in formalin and pathological specimens were prepared. Histopathological findings (inflammatory cell infiltration and liver cell necrosis) were evaluated.

[2] = test system: P. acnes/LPS-induced mouse hepatitis model; assay: (B4) P. acnes/LPS-induced mouse hepatitis model; assay type: in vivo, ICR mice; details: oral, 9 hours after administration of the drug
Description: (B4) P. acnes/LPS-induced mouse hepatitis model
[Method] Propionibacterium acnes (P. acnes) killed by heat treatment was lyophilized and used in the experiment. To 7-week-old male ICR mice, either saline or P. acnes, 0.6 mg/0.2 ml/mouse, was administered intravenously. After 7 days, the drug or the solvent vehicle was administered orally in predetermined doses to the animals deprived of food for 20 hours. At. 9 hours after administration of the drug, the blood was drawn and the liver-derived enzymes (ALT and AST) in plasma were assayed.

[3] = test system: antigen-induced eosinophil infiltration in guinea pigs; assay: (B8) Inhibitory effect on antigen-induced eosinophil infiltration in guinea pigs; assay type: in vivo, Hartley guinea pigs; details: oral 1 hour before the challenge; BAL 24 hours after challenge
Description: (B8) Inhibitory effect on antigen-induced eosinophil infiltration in guinea pigs
[Method] Male Hartley guinea pigs were sensitized by intravenous administration of guinea-pig anti-ovalbumin (OVA) antiserum. After 24 hours, an antigen challenge was performed by inhalation exposure to a nebulized 1% solution of OVA. At 24 hours after challenge with the antigen, the bronchial alveolar lavage (BAL) was collected and the number of eosinophils was determined using the eosinophil peroxidase activity in BAL as an indicator. The drug was administered orally 1 hour before the challenge. [Results]

CS(=O)(=O)O.O.O.O=C(Nc1cccc(-n2c(=O)c(Cc3cccnc3)nc3cccnc32)c1)c1cc(Cl)cc(Cl)c1 [Example 2, 4-(3-(3,5-dichlorobenzoylamino)phenyl)-2-(3-pyridyl)methyl-3-oxo-3,4-dihydropyrido[2,3-b]pyrazine methanesulfonate dihydrate]
IC50 (IL-2): 130 nM | elevation of blood ALT ([1]; oral 1 hour before ConA): significantly inhibited | elevation of blood AST ([1]; oral 1 hour before ConA): significantly inhibited | inflammatory cell infiltration ([1]; oral, histopathology): inhibited | liver cell necrosis ([1]; oral, histopathology): inhibited | elevation of blood ALT [2]: significantly inhibited | elevation of blood AST [2]: significantly inhibited | infiltration of eosinophils and other inflammatory cells into the bronchial alveola [3]: inhibited
